Reference: paper PMC11352469, “Comprehensive Analysis of Kisspeptin Signaling: Effects on Cellular Dynamics in Cervical Cancer” (Biomolecules, 2024)
Blank lines part the entries; values can stand above or below the molecule they belong to. Residues, ends and D or L forms follow the SMILES beside them.

Tests used:
MCF7 cells [1] = test: Cytotoxicity MTT assay, MCF7; type: cell-based, human; details: 48 h
Procedure: (§1) Human cervical adenocarcinoma (HeLa) cells (cat# CRM-CCL-2) were obtained from the American Type Culture Collection (ATCC, Manassas, VA, USA). Human breast adenocarcinoma (MCF7) cells, Human prostate adenocarcinoma (PC3) cells, Human gastric adenocarcinoma (AGS) cells and Human Embryonic Kidney cells (HEK293T) were kindly provided by the Universidad Industrial de Santander. HeLa, MCF7, and HEK293T cells were cultured in DMEM medium supplemented with 10% FBS (fetal bovine serum), 1% penicillin/streptomycin. PC3 and AGS cells were cultured in RPMI medium supplemented with 10% FBS, 1% penicillin/streptomycin. All cells were maintained at 37 °C and 5% CO2.
(§2) 15,000 cells per well were plated in 96-well plates (Greiner, Fisher Scientific, Waltham, MA, USA) using a fully complemented medium, and incubated at 37 °C. Following a 24 h period, cells underwent serum starvation before being treated with KP10 and its analogs at concentrations of 10, 100, 250, and 500 nM for 48 h. Subsequently, each well received 100 µL of MTT solution (0.5 mg/mL), and the plates were incubated at 37 °C for 3 h. After adding the MTT solvent and further incubation for 15 min, the resultant absorbance was measured at 590 nm using a BioTech RT-2100C microplate reader. Data analysis was performed using Prism 8.0 software (GraphPad).

kisspeptin receptor [2] = target: T1, kisspeptin receptor (Homo sapiens, UniProt Q969F8); test: BRET assay, Gq pathway; type: cell-based; set-up: expressed in transfected cells; host or cells: HeLa cells, transient transfection with PEI; details: for EC50 / Emax: HeLa cells, Gq pathway; for Emax: KP10 = 100%
Excerpt: (§3) The Bioluminescence Resonance Energy Transfer (BRET) assay was developed as described before. Briefly, HeLa cells were transiently transfected with these plasmids encoding for the GPCR, Gα subunit, the G protein effectors tagged with the BRET donor (RlucII), and the plasma membrane anchor (the CAAX motif from KRas, which includes a prenylation and a polybasic domain) fused to the BRET acceptor rGFP using Polietilendiimine (PEI) as described in Avet et al.. Fourty-eight hours post-transfection, cells were incubated with the coelenterazine substrate for Renilla luciferase Prolume Purple, stimulated with kisspeptin receptor agonists for 10 min and BRET signals were measured using a dual-filter luminometer (SPARK, Tecan Life Sciences, Männedorf, Switzerland). BRET ratios were calculated by dividing the acceptor emission by the donor emission, providing a quantitative measure for […]. Data were analyzed using Prism 8.0 (GraphPad) to determine interaction dynamics under various experimental conditions.

kisspeptin receptor [3] = target: T1, kisspeptin receptor; test: BRET assay, G11 pathway; type: cell-based; set-up: expressed in transfected cells; host or cells: HeLa cells, transient transfection with PEI; details: for Emax / EC50: HeLa cells, G11 pathway; for Emax: KP10 = 100%; for EC50: read-out: pEC50 G11 (converted)
Excerpt: as §3

kisspeptin receptor [4] = target: T1, kisspeptin receptor; test: BRET assay, G14 pathway; type: cell-based; set-up: expressed in transfected cells; host or cells: HeLa cells, transient transfection with PEI; details: for Emax / EC50: HeLa cells, G14 pathway; for Emax: KP10 = 100%; for EC50: read-out: pEC50 G14 (converted)
Excerpt: as §3

kisspeptin receptor [5] = target: T1, kisspeptin receptor; test: BRET assay, G15 pathway; type: cell-based; set-up: expressed in transfected cells; host or cells: HeLa cells, transient transfection with PEI; details: for Emax / EC50: HeLa cells, G15 pathway; for Emax: KP10 = 100%; for EC50: read-out: pEC50 G15 (converted)
Excerpt: as §3

kisspeptin receptor [6] = target: T1, kisspeptin receptor; test: BRET assay, Gz pathway; type: cell-based; set-up: expressed in transfected cells; host or cells: HeLa cells, transient transfection with PEI; details: for Emax / EC50 / Δ(logτ/KA) bias factor, Gαz pathway: HeLa cells; for Emax / EC50: Gz pathway; for Emax: KP10 = 100%; for Δ(logτ/KA) bias factor, Gαz pathway: operational model, KP10 as reference
Excerpt: as §3, with “conditions. The bias factor for the kisspeptin analogs was calculated using the operational model of agonism as described by Kenakin [31]. Emax and EC50 values were determined for each signaling pathway (e.g., G protein activation, β-arrestin recruitment). The data were then fitted to the operational model to estimate transduction coefficients (τ). The bias factor (ΔLog(τ/KA)) was calculated by comparing the τ/KA values for each pathway relative to a reference pathway. This method quantifies signaling bias by evaluating relative efficacy and potency across pathways. Statistical significance of the observed bias was assessed to ensure the differences were not due to random variation. All calculations and analyses were performed using GraphPad Prism software (GraphPad, San Diego, CA, USA).” for “conditions.”

kisspeptin receptor [7] = target: T1, kisspeptin receptor; test: BRET assay, β-arrestin1 recruitment; type: cell-based; set-up: expressed in transfected cells; host or cells: HeLa cells, transient transfection with PEI; details: for Emax / EC50: HeLa cells, β-arrestin1 recruitment; for Emax: KP10 = 100%; for EC50: mean of 4 experiments
Excerpt: as §3

kisspeptin receptor [8] = target: T1, kisspeptin receptor; test: BRET assay, β-arrestin2 recruitment; type: cell-based; set-up: expressed in transfected cells; host or cells: HeLa cells, transient transfection with PEI; details: for Emax / EC50: HeLa cells, β-arrestin2 recruitment; for Emax: KP10 = 100%
Excerpt: as §3

PC3 cells [9] = test: Cytotoxicity MTT assay, PC3; type: cell-based, human; details: 48 h
Procedure: as §1, §2

HeLa cells [10] = test: In vitro wound healing assay, HeLa; type: cell-based, human; details: particularly at 48 and 72 h
Procedure: (§4) Cells (3 × 10^5 cells/well) were seeded in 24-well plates for 24 h. Then, a sterile pipette tip of 20–200 μL was held vertically to create a cross-shaped scratch in each well. The detached cells were carefully removed by washing with 500 μL PBS and shaking at 500 rpm for 5 min. Then, 500 μL of medium containing the peptides to be tested was added to each well and incubated for 72 h. Prior taking each image, the plate was washed with 500 μL of PBS and gently shaken for 30 s. Then, 500 μL of medium containing the corresponding peptides was added to each well again and images were taken at 24 h intervals using a Primovert microscope at 4× magnification and 1/3700 s exposure time. Wound opening areas were obtained using Prism 8.0 software (GraphPad).

MCF7 cells [11] = test: In vitro wound healing assay, MCF7; type: cell-based, human; details: MCF7, particularly at 48 and 72 h
Procedure: as §4

PC3 cells [12] = test: In vitro wound healing assay, PC3; type: cell-based, human; details: PC3, difference to control less marked
Procedure: as §4

AGS cells = test: In vitro wound healing assay, AGS; type: cell-based, human; details: difference to control less marked
Procedure: as §4

HEK293T cells = test: Cytotoxicity MTT assay, HEK293T; type: cell-based, human; details: 48 h
Procedure: as §1, §2

HeLa cells [13] = test: Cytotoxicity MTT assay, HeLa; type: cell-based, human; details: 48 h
Procedure: as §1, §2

kisspeptin receptor [14] = target: T1, kisspeptin receptor
kisspeptin receptor [15] = target: T1, kisspeptin receptor; remark: listed apart in the source
[16] = mean of 4 experiments, read-out: EC50(M) Gz
[17] = mean of 4 experiments, read-out: EC50(M) β-arrestin2
[18] = read-out: pEC50 β-arrestin2 (converted)

T1 sequence (Q969F8 whole entry, the tested form may be a part): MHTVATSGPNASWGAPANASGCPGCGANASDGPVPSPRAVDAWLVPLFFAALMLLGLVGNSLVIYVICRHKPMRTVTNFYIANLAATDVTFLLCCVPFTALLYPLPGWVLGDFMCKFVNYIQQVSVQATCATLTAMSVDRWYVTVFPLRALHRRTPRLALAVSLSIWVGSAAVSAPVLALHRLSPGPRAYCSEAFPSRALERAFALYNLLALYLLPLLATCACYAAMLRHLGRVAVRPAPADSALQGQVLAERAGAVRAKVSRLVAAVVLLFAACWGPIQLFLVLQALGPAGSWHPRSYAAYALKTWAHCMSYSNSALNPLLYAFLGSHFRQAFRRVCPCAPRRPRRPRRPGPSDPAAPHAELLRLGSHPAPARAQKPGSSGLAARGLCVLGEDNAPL

Molecule: CC(C)C[C@H](NC(=O)CNC(=O)[C@H](Cc1ccccc1)NC(=O)[C@H](CO)NC(=O)[C@H](CC(N)=O)NC(=O)[C@H](Cc1c[nH]c2ccccc12)NC(=O)[C@H](CC(N)=O)NC(=O)[C@@H](N)Cc1ccc(O)cc1)C(=O)N[C@@H](CCCN=C(N)N)C(=O)N[C@@H](Cc1ccccc1)C(N)=O [KP-10, kisspeptin-10, reference compound]
pIC50 HEK293T (HEK293T cells): 2.489
pIC50 PC3 (PC3 cells [9]): 2.678
EC50 (kisspeptin receptor [2]): 13.5 nM
EC50 (kisspeptin receptor [3]): 38 nM
EC50 (kisspeptin receptor [4]): 33.1 nM
EC50 (kisspeptin receptor [5]): 26.9 nM
EC50 (kisspeptin receptor [6]; [16]): 1.63e-07 M
EC50 (kisspeptin receptor [6]; read-out: pEC50 Gz (converted)): 1.35e-07 M
Δ(logτ/KA) bias factor, Gαz pathway (kisspeptin receptor [6]): 0
EC50 (kisspeptin receptor [8]; [18]): 3.72e-07 M

Molecule: Ala^1-KP10: Ala-Asn-Trp-Asn-Ser-Phe-Gly-Leu-Arg-Phe; KP10 Ala-scan analog (ANWNSFGLRF; printed: Ala-Asn-Trp-Asn-Ser-Phe-Gly-Leu-Arg-Phe)
pIC50 HEK293T (HEK293T cells): 2.311
pIC50 HeLa (HeLa cells [13]): 2.483
pIC50 PC3 (PC3 cells [9]): 2.475

Molecule: Ala^9-KP10: Tyr-Asn-Trp-Asn-Ser-Phe-Gly-Leu-Ala-Phe; KP10 Ala-scan analog (YNWNSFGLAF; printed: Tyr-Asn-Trp-Asn-Ser-Phe-Gly-Leu-Ala-Phe)
pIC50 HeLa (HeLa cells [13]): 2.429
pIC50 PC3 (PC3 cells [9]): 2.295

Molecule: Ala^10-KP10: Tyr-Asn-Trp-Asn-Ser-Phe-Gly-Leu-Arg-Ala; KP10 Ala-scan analog (YNWNSFGLRA; printed: Tyr-Asn-Trp-Asn-Ser-Phe-Gly-Leu-Arg-Ala)
pIC50 HeLa (HeLa cells [13]): 2.493
pIC50 PC3 (PC3 cells [9]): 1.739

Molecule: YNANSFGLRF [Ala^3-KP10]
EC50 of Gαz pathway activation, effector-RlucII / rGFP-CAAX BRET biosensor in transfected HeLa cells, 10 min stimulation (kisspeptin receptor [14]): 646 nM
EC50 of β-arrestin1 recruitment, BRET biosensor in transfected HeLa cells (kisspeptin receptor [15]): 1190 nM
EC50 of β-arrestin2 recruitment, BRET biosensor in transfected HeLa cells (kisspeptin receptor [15]): 1430 nM

Now from value to molecule, other results behind:

EC50 (kisspeptin receptor [2]): 85.1 nM
Emax (kisspeptin receptor [2]): 107%
Fc Gq (kisspeptin receptor [2]; fold change of EC50 relative to KP10, Gq pathway): 5.76
Emax (kisspeptin receptor [3]): 102%
EC50 (kisspeptin receptor [3]): 209 nM
Fc G11 (kisspeptin receptor [3]; fold change of EC50 relative to KP10, G11 pathway): 4.65
Emax (kisspeptin receptor [4]): 100%
EC50 (kisspeptin receptor [4]): 166 nM
Fc G14 (kisspeptin receptor [4]; fold change of EC50 relative to KP10, G14 pathway): 4.28
Emax (kisspeptin receptor [5]): 99.5%
EC50 (kisspeptin receptor [5]): 135 nM
Fc G15 (kisspeptin receptor [5]; fold change of EC50 relative to KP10, G15 pathway): 4.92
Emax (kisspeptin receptor [6]): 94%
EC50 (kisspeptin receptor [6]; [16]): 6.46e-07 M
EC50 (kisspeptin receptor [6]; read-out: pEC50 Gz (converted)): 5.75e-07 M
Fc Gz (kisspeptin receptor [6]; fold change of EC50 relative to KP10, Gz pathway): 3.96
Δ(logτ/KA) bias factor, Gαz pathway (kisspeptin receptor [6]): −0.7
Emax (kisspeptin receptor [7]): 69%
EC50 (kisspeptin receptor [7]): 1190 nM
Fc β-arrestin1 (kisspeptin receptor [7]; fold change of EC50 relative to KP10, β-arrestin1): 2.01
Emax (kisspeptin receptor [8]): 63.9%
EC50 (kisspeptin receptor [8]; [17]): 1.43e-06 M
EC50 (kisspeptin receptor [8]; [18]): 1e-06 M
Fc β-arrestin2 (kisspeptin receptor [8]; fold change of EC50 relative to KP10, β-arrestin2): 3.82
Molecule: CC(C)C[C@H](NC(=O)CNC(=O)[C@H](Cc1ccccc1)NC(=O)[C@H](CO)NC(=O)[C@H](CC(N)=O)NC(=O)[C@H](C)NC(=O)[C@H](CC(N)=O)NC(=O)[C@@H](N)Cc1ccc(O)cc1)C(=O)N[C@@H](CCCNC(=N)N)C(=O)N[C@@H](Cc1ccccc1)C(N)=O [Ala^3-KP10] (H-YNANSFGLRF-NH2; N-terminus assumed)
pIC50 MCF7 (MCF7 cells [1]): 2.624

EC50 (kisspeptin receptor [2]): 214 nM
Emax (kisspeptin receptor [2]): 104%
Emax (kisspeptin receptor [3]): 106%
EC50 (kisspeptin receptor [3]): 447 nM
Emax (kisspeptin receptor [4]): 97.7%
EC50 (kisspeptin receptor [4]): 355 nM
Emax (kisspeptin receptor [5]): 101%
EC50 (kisspeptin receptor [5]): 339 nM
Emax (kisspeptin receptor [6]): 84.7%
EC50 (kisspeptin receptor [6]; [16]): 1.1e-06 M
EC50 (kisspeptin receptor [6]; read-out: pEC50 Gz (converted)): 9.12e-07 M
Δ(logτ/KA) bias factor, Gαz pathway (kisspeptin receptor [6]): −1.66
Emax (kisspeptin receptor [7]): 69.1%
EC50 (kisspeptin receptor [7]): 13000 nM
Emax (kisspeptin receptor [8]): 79%
EC50 (kisspeptin receptor [8]; [17]): 2.58e-06 M
EC50 (kisspeptin receptor [8]; [18]): 2.51e-06 M
Molecule: CC(C)C[C@H](NC(=O)CNC(=O)[C@H](Cc1ccccc1)NC(=O)[C@H](CO)NC(=O)[C@H](C)NC(=O)[C@H](Cc1c[nH]c2ccccc12)NC(=O)[C@H](CC(N)=O)NC(=O)[C@@H](N)Cc1ccc(O)cc1)C(=O)N[C@@H](CCCNC(=N)N)C(=O)N[C@@H](Cc1ccccc1)C(N)=O [Ala^4-KP10] (H-YNWASFGLRF-NH2; N-terminus assumed)
pIC50 PC3 (PC3 cells [9]): 2.541
migration inhibition (wound closure) (HeLa cells [10]): most pronounced effects
migration inhibition (wound closure) (MCF7 cells [11]): most pronounced effects
migration inhibition (wound closure) (PC3 cells [12]): more inhibitory treatment
migration inhibition (wound closure) (AGS cells): more inhibitory treatment

EC50 of Gαz pathway activation, effector-RlucII / rGFP-CAAX BRET biosensor in transfected HeLa cells, 10 min stimulation (kisspeptin receptor [14]): 1100 nM
EC50 of β-arrestin1 recruitment, BRET biosensor in transfected HeLa cells (kisspeptin receptor [15]): 13000 nM
EC50 of β-arrestin2 recruitment, BRET biosensor in transfected HeLa cells (kisspeptin receptor [15]): 2580 nM
Molecule: YNWASFGLRF [Ala^4-KP10]
